ChEMBL document CHEMBL1201862, “PubChem BioAssay data set” (2004)
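Briefly, cells in 96-well plates were exposed to five compound concentrations for 48 h, and endpoints were estimated by linear interpolation. Here, GI50 denotes the concentration required for 50% inhibition of growth.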 Activity calls are given as the source filed them. No stated cut-off is given here; in the data, active = GI50 up to about 1.1 µM and inactive = higher.

Tests used:
Test in all cases: growth of human tumour cells (NCI), 48 h
HOP-92 = tested on: HOP-92
NCI/ADR-RES = tested on: NCI/ADR-RES
DU-145 = tested on: DU-145
IGROV-1 = tested on: IGROV-1
SNB-75 = tested on: SNB-75
HT-29 = tested on: HT-29
UACC-62 = tested on: UACC-62
RXF 393 = tested on: RXF 393
EKVX = tested on: EKVX
NCI-H226 = tested on: NCI-H226
786-0 = tested on: 786-0
HCT-15 = tested on: HCT-15
PC-3 = tested on: PC-3
OVCAR-8 = tested on: OVCAR-8
MCF7 = tested on: MCF7
M14 = tested on: M14
NCI-H460 = tested on: NCI-H460
SNB-19 = tested on: SNB-19
HCT-116 = tested on: HCT-116
OVCAR-5 = tested on: OVCAR-5
SK-OV-3 = tested on: SK-OV-3
TK-10 = tested on: TK-10
SF-539 = tested on: SF-539
OVCAR-4 = tested on: OVCAR-4
HL-60 = tested on: HL-60
SK-MEL-5 = tested on: SK-MEL-5
SK-MEL-2 = tested on: SK-MEL-2
MDA-MB-231 = tested on: MDA-MB-231
A549 = tested on: A549
MDA-N = tested on: MDA-N
CAKI-1 = tested on: CAKI-1
ACHN = tested on: ACHN
T47D = tested on: T47D
UACC-257 = tested on: UACC-257
MOLT-4 = tested on: MOLT-4
SF-268 = tested on: SF-268
LOX IMVI = tested on: LOX IMVI
KM12 = tested on: KM12
SN12C = tested on: SN12C
SF-295 = tested on: SF-295
Hs-578T = tested on: Hs-578T
HOP-62 = tested on: HOP-62
CCRF-CEM = tested on: CCRF-CEM
NCI-H522 = tested on: NCI-H522
NCI-H23 = tested on: NCI-H23
Malme-3M = tested on: Malme-3M
UO-31 = tested on: UO-31
COLO 205 = tested on: COLO 205
A498 = tested on: A498

Which GI50 (HOP-92) does the source give for `CCOC(=O)C(=[N+]=[N-])C(=O)C1(C(=O)OCC)CCN(C(=O)c2ccccc2)C1=O` (centres undefined) here?
Its GI50 is > 100 µM (inactive).

And the GI50 (NCI/ADR-RES)?
Its GI50 is > 100 µM (inactive).

And the GI50 (DU-145)?
The GI50 was > 100 µM (inactive).

And the GI50 (IGROV-1)?
Its GI50 is > 100 µM (inactive).

And the GI50 (SNB-75)?
Its GI50 is > 100 µM (inactive).

What about the GI50 (HT-29) of the same compound?
Its GI50 is > 100 µM (inactive).

And the GI50 (UACC-62)?
Its GI50 is > 100 µM (inactive).

What about the GI50 (RXF 393) of the same compound?
The GI50 was > 100 µM (inactive).

What about the GI50 (EKVX) of the same compound?
The GI50 was > 100 µM (inactive).

What about the GI50 (NCI-H226) of the same compound?
The GI50 was > 100 µM (inactive).

And the GI50 (786-0)?
The GI50 was > 100 µM (inactive).

And the GI50 (HCT-15)?
The GI50 was over 100 µM.

What about the GI50 (PC-3) of the same compound?
Its GI50 is > 100 µM (inactive).

What about the GI50 (OVCAR-8) of the same compound?
Its GI50 is > 100 µM (inactive).

What about the GI50 (MCF7) of the same compound?
Its GI50 is > 100 µM (inactive).

And the GI50 (M14)?
The GI50 was > 100 µM (inactive).

What about the GI50 (NCI-H460) of the same compound?
The GI50 was > 100 µM (inactive).

What about the GI50 (SNB-19) of the same compound?
Its GI50 is > 100 µM (inactive).

And the GI50 (HCT-116)?
The GI50 was > 100 µM (inactive).

And the GI50 (OVCAR-5)?
The GI50 was > 100 µM (inactive).

And the GI50 (SK-OV-3)?
The GI50 was > 100 µM (inactive).

What about the GI50 (TK-10) of the same compound?
Its GI50 is > 100 µM (inactive).

What about the GI50 (SF-539) of the same compound?
The GI50 was > 100 µM (inactive).

What about the GI50 (OVCAR-4) of the same compound?
The GI50 was > 100 µM (inactive).

What about the GI50 (HL-60) of the same compound?
The GI50 was > 100 µM (inactive).

What about the GI50 (SK-MEL-5) of the same compound?
Its GI50 is > 100 µM (inactive).

What about the GI50 (SK-MEL-2) of the same compound?
The GI50 was > 100 µM (inactive).

What about the GI50 (MDA-MB-231) of the same compound?
The GI50 was > 100 µM (inactive).

What about the GI50 (A549) of the same compound?
Its GI50 is > 100 µM (inactive).

What about the GI50 (MDA-N) of the same compound?
Its GI50 is > 100 µM (inactive).

What about the GI50 (CAKI-1) of the same compound?
Its GI50 is > 100 µM (inactive).

And the GI50 (ACHN)?
Its GI50 is > 100 µM (inactive).

What about the GI50 (T47D) of the same compound?
The GI50 was > 100 µM (inactive).

And the GI50 (UACC-257)?
Its GI50 is > 100 µM (inactive).

What about the GI50 (MOLT-4) of the same compound?
Its GI50 is > 100 µM (inactive).

What about the GI50 (SF-268) of the same compound?
The GI50 was > 100 µM (inactive).

What about the GI50 (LOX IMVI) of the same compound?
Its GI50 is > 100 µM (inactive).

And the GI50 (KM12)?
Its GI50 is > 100 µM (inactive).

And the GI50 (SN12C)?
Its GI50 is > 100 µM (inactive).

And the GI50 (SF-295)?
The GI50 was > 100 µM (inactive).

What about the GI50 (Hs-578T) of the same compound?
The GI50 was > 100 µM (inactive).

What about the GI50 (HOP-62) of the same compound?
Its GI50 is > 100 µM (inactive).

And the GI50 (CCRF-CEM)?
The GI50 was > 100 µM (inactive).

And the GI50 (NCI-H522)?
Its GI50 is > 100 µM (inactive).

And the GI50 (NCI-H23)?
The GI50 was > 100 µM (inactive).

And the GI50 (Malme-3M)?
Its GI50 is > 100 µM (inactive).

And the GI50 (UO-31)?
Its GI50 is > 100 µM (inactive).

What about the GI50 (COLO 205) of the same compound?
Its GI50 is > 100 µM (inactive).

What about the GI50 (A498) of the same compound?
Its GI50 is > 100 µM (inactive).
